Experimental data reported in article PMC12682947, “Identification of New KCNT1‐Epilepsy Drugs by In Silico, Cell, and Drosophila Modeling” (Annals of Neurology, 2025).
Where a name gives a salt, the structure may show the parent alone.

System: Drosophila mutant KCNT1 lines (G288S, R398Q, R928C)
Assay: Bang-sensitive behavioral seizure assay, statements for all three Drosophila mutant KCNT1 lines
Format: in vivo, Drosophila melanogaster
Conditions: for effect on seizure activity (in words): drug in food, 1 nM to 1 μM, each of the three mutant lines
Description: The Drosophila melanogaster lines carrying the WT human KCNT1 transgene (NM_020822_3) or KCNT1 mutant G288S, R398Q or R928C transgene placed downstream of the yeast UAS promoter, have been described previously.[11] WT or mutant human UAS‐KCNT1 flies were crossed to flies expressing the GAL4 transcriptional activator under the control of the GAD1 promoter (GABAergic driver, Bloomington stock number 51630 P2) to drive expression of KCNT1 in GABAergic neurons, involved in neuronal inhibition.[11]
The bang‐sensitive behavioral assay (also known as the banging assay) was used to test for the presence of a seizure phenotype in Drosophila.[11], [30] Experiments were performed and scored, as previously described,[11] with a minimum of 50 Drosophila tested for each genotype and drug concentration.
Four drugs were selected for in vivo analysis to determine their effects on the seizure phenotypes in transgenic Drosophila lines with human mutant KCNT1 channels. Bepridil, a nonselective KCNT1 inhibitor was included for comparison. Drosophila food with and without drugs was prepared as previously described.[11] All chemicals were obtained from Sigma‐Aldrich (Gillingham, UK) apart from antrafenine hydrochloride (Toronto Research Chemicals, Canada) and regorafenib (USP, Germany).
Drosophila crosses were set up, and the resulting embryos were collected, as previously described.[11] A range of concentrations of each drug dissolved in Drosophila food, between 0.001 μM and 1 μM, were used in the experiments. Multiple replicates were performed for each dosage of the drugs and controls. Controls were vehicle controlled (VC), which was the normal food with just the solvent ethanol present (1 μl/1 ml) in the Drosophila food, and normal food (NF) control where no drug or solvent (ethanol) was added in the Drosophila food.
In all experiments, experimenters were not blinded to variants or treatments, nor were samples randomly assigned to groups. Sample sizes were not calculated in advance and no data were excluded from the analysis. Data were analyzed using GraphPad Prism 9 software (San Diego, CA, USA). All values are reported as mean ± standard error of the mean (SEM). All data passed normality and lognormality Shapiro–Wilk tests, determined by GraphPad Prism 9. In the experiments analyzing the effects of drugs in Drosophila, statistical significance of differences between groups was determined using Brown‐Forsythe and Welch's analysis of variance (ANOVA) tests (Supplementary Table S3), assuming non‐equal SDs, followed by Dunnett's multiple comparisons tests (GraphPad Prism 9). The results of the Dunnett's multiple comparisons tests are shown in Supplementary Table S4, where “N” represents independent trials using independent fly crosses, with the total number of flies for each condition shown in brackets.

Compound	effect on seizure activity (in words)	viability of adult flies (1 μM in food)
O=C(OCCN1CCN(c2cccc(C(F)(F)F)c2)CC1)c1ccccc1Nc1ccnc2cc(C(F)(F)F)ccc12 [antrafenine]	significantly reduce the seizure activity	
CC(C)c1c(C(=O)Nc2ccccc2)c(-c2ccccc2)c(-c2ccc(F)cc2)n1CC[C@@H](O)C[C@@H](O)CC(=O)O [atorvastatin]	did not show a significant effect	reduced viability
Cc1c(O)cccc1C(=O)N[C@@H](CSc1ccccc1)[C@H](O)CN1C[C@H]2CCCC[C@H]2C[C@H]1C(=O)NC(C)(C)C [nelfinavir mesylate]	significantly reduce the seizure activity	
CNC(=O)c1cc(Oc2ccc(NC(=O)Nc3ccc(Cl)c(C(F)(F)F)c3)c(F)c2)ccn1 [regorafenib]	did not show a significant effect	
